Laboratory results: PMC10003107, “Selectivity of Hydroxamate- and Difluoromethyloxadiazole-Based Inhibitors of Histone Deacetylase 6 In Vitro and in Cells” (International Journal of Molecular Sciences, 2023)

Columns and labels:
[1] = test system: histone H3 acetylation; test: Histone H3 (K9/K14) acetylation in RPMI-8226 cells by Western blotting; format: cell-based; conditions: 6 h, Western blot
[2] = test system: RPMI-8226 lymphoblasts; test: MTT viability assay; format: cell-based; conditions: RPMI-8226 cells, 48 h, MTT
Method: RPMI-8226 lymphoblasts (ATTC #CCL-155) were used to assess the cytotoxicity of tested compounds. […] Dilution series of tested inhibitors were prepared as 10x stock solutions in PBS and 10 μL was added to cells and incubated under a 5% CO2 atmosphere at 37 °C, for 2 days. Following incubation, 10 μL of MTT reagent (3-(4,5-dimethylthiazol-2-yl)-2,5-diphenyltetrazolium bromide, 5 mg/mL in PBS, Sigma Aldrich) was added to each well and incubated for 90 min, 37 °C, 5% CO2. […]

SMILES: CS(=O)(=O)N(Cc1ccc(-c2nnc(C(F)F)o2)cn1)c1cccc(Cl)c1 [compound 7, N-(3-chlorophenyl)-N-((5-(5-(difluoromethyl)-1,3,4-oxadiazol-2-yl)pyridin-2-yl)methyl)methanesulfonamide]
- effect on histone H3 (K9/K14) acetylation, class I HDAC inhibition [1]: does not increase H3 acetylation even at the highest concentrations
- effect on cell viability [2]: less pronounced effects on cell viability at high inhibitor concentrations
